According to patent US12121525B2, “Methods for treating GI syndrome and graft versus host disease” (Sloan Kettering Institute for Cancer Research, priority 2007, dated 2024):

Legend:
C57BL/6 splenocytes [1] = assay: Platform generation on target splenocytes coincubated with MLR-primed CTLs; settings: 500 nM
splenic T cells = assay: Activation-induced cell death (AICD) assay, T cell apoptosis; assay type: cell-based, mouse; settings: 500 nM; 16 hr
Source text: To define a role for target cell ASMase in AICD, asmase^+/+, asmase^−/− or MRL.1pr (FasR^−/−) T cells were stimulated for 24 hr with 10 microgam/ml ConA, washed, rested in medium containing 20 U/ml rIL-2 for 24 hr, and finally AICD was initiated by restimulation in medium containing 20 U/ml rIL-2 and increasing concentrations of plate bound anti-CD3 mAb for 24 hr. AICD induction by anti-CD3 mAb conferred ceramide-rich platform generation 4 hr following stimulation (FIG. 19D), evident in 26.4±1.6% of the population of asmase^+/+ T cells compared to 5.1±1.0% of asmase^−/− T cells (p<0.005). Confocal analysis identified colocalization of the sphingolipid GM1 (FIG. 19E) and Fas within ceramide-rich platforms in asmase^+/+ T cells.
To characterize the impact of platform generation on AICD, asmase^+/+ and asmase^−/− T cells were induced to undergo AICD and apoptosis was quantified 16 hr thereafter. Apoptosis in asmase^+/+ T cells was anti-CD3 mAb dose-dependent, reaching 32.9±5.2% apoptosis 16 hr post induction (FIG. 19F). […]
Harvested splenocytes were enriched for T lymphocytes by nylon wool passage, resulting in >90% purity based upon FITC-CD3 mAb staining by flow cytometry. […] Cells were subsequently fixed, stained with 25 μl of 24 μg/ml bis-benzimide trihydrochloride solution (Hoechst #33258; Sigma-Aldrich, Milwaukee Wisc.) and apoptosis was quantified by fluorescence microscopy, as above.

C57BL/6 splenocytes [2] = assay: MLR-primed CTL-induced splenocyte lysis (51Cr release); assay type: cell-based, mouse; settings: 500 nM
Protocol: To show the generic role of target cell ASMase in T cell-induced lysis, we used two standardized assays for T cell function; MLR-primed CTL-induced splenocyte lysis (FIG. 17) and in vitro activation-induced cell death (AICD) of T cells (FIG. 18). The role of target cell ASMase was assessed in an in vitro activated MLR, in which C57BL/6 splenocyte target cells of asmase^+/+ or asmase^−/− genotype were stimulated for 48 hrs with mitogen, washed and chromium labeled. These cells were then coincubated with effector Balb/c splenocytes activated for 5 days by culture with irradiated C57BL/6 splenocytes. Chromium release was quantified and the % lysis was calculated. […] Washed splenocytes cells were coincubated with increasing ratios of activated effector Balb/c T cells, and ^51Cr release was quantified 6 hour thereafter. […]
To evaluate a potential generic role for target cell ASMase in platform generation in T cell-induced lysis, we tested two standardized assays for T cell-mediated cytolysis, MLR-primed CTL-induced splenocyte lysis, and in vitro AICD of T cells. […] Furthermore, MLR-primed CTLs induced 43.2±6.5% asmase^+/+ splenocyte lysis at an effector:target ratio of 50:1 (FIG. 19B), attenuated to 7.3±2.5% lysis in asmase^−/− target cells, as quantified by ^51Cr-release assay. […]

Structure (SMILES): CCCCCCCCCCCCC/C=C/[C@@H](O)[C@H](CO)NC(=O)CCCCCCCCCCCCCCC [C16-ceramide]
- platform generation on asmase−/− target splenocytes (C57BL/6 splenocytes [1]): restored
- apoptosis of asmase−/− T cells stimulated to undergo AICD (splenic T cells): completely restored
- CTL-induced lysis of asmase−/− target splenocytes (C57BL/6 splenocytes [2]): restored
